Experimental findings from PubChem BioAssay AID2384 (Southern Research Specialized Biocontainment Screening …, 2010) are described below.

Structures are written as SMILES. “And” between values parts separate entries of the source, which are not always exact repeats. Equal entries are not always repeated. Some results are limits rather than exact numbers.

This test has as its system S. typhi GFP reporter counter-screen, fluorescence, 4 h. In words: inhibitors in S. typhi counter-screen strain, dose response, counter-screen for PhoP regulon inhibitor project, fluorescence, 4 h (AID 2384). Background: A counterscreen serves to expose hits that act by an unwanted route or on another target.

Turning to `c1ccc(Sc2cccc3ccccc23)c(CNC2=NCCN2)c1`, the half-maximal inhibitory concentration (IC50) – broadly, the concentration that gives 50% inhibition – is 40.1 µM.
With `O=C(/C=C/c1cc(Br)ccc1O)c1ccco1` the figure was 52.5 µM; with `COc1ccccc1Nc1nc(NCc2ccco2)c2ccccc2n1`, 56.3 µM.
The figure for `O=C(Cc1ccccc1)N/N=C/c1cc(Br)cc(Cl)c1O` is 26.4 µM; for `Cc1nnc(N/N=C/c2ccccn2)[nH]c1=O` it is 31.4 µM; for `Nc1nc2ccccc2n1CCOc1ccccc1Cl` it is 40.7 µM.
For `CN(C)CCNc1oc(COc2ccc(-c3ccccc3)cc2)nc1C#N`, the IC50 was 39 µM.
With `CN(C)c1ccc(Nc2nc(N)c3ccccc3n2)cc1` the figure was 77.7 µM.
On to `Cc1c(CN(C)C)c2c(n1Cc1ccccc1)C(=O)c1ccc(Br)cc1-2`, for which the IC50 was 47.2 µM.
The figure for `CCCCCCCNC(=O)C1(CC2CC(c3cccc(Br)c3)=NO2)CCNCC1` (stereo not drawn) is 39.8 µM.
With `COc1c2ccccc2nc2ccccc12` the figure was 40.4 µM; with `O=C(O)c1cn(C2CC2)c2cc(N3CCN(S(=O)(=O)c4ccc5c(c4)OCCO5)CC3)c(F)cc2c1=O`, 15.9 µM.
On to `COc1ccc(OCc2n(CC(=O)OC3CC(C)CCC3C(C)C)c3ccccc3[n+]2C)cc1` (stereo not drawn), for which the half-maximal inhibitory concentration (IC50) is 36.6 µM.
On to `COc1cccc2c(=O)c(C(=O)O)c[nH]c12`, for which the IC50 is 113 µM.
As for `COc1cc(Br)cc(C=Nc2cccc(C(F)(F)F)c2)c1O`, the IC50 is 73.8 µM.
On to `NC1=NC[C@H](c2ccccc2)N1CCCCC1CCCCC1`, for which the IC50 was 28.9 µM.
The figure for `O=C(Nc1cccc(Br)c1)c1cc2ccccc2o1` is 83.3 µM.
With `O=S(=O)(Nc1c(S(=O)(=O)c2ccccc2)c2nc3ccccc3nc2n1C1CCCCC1)c1ccccc1` the figure was 5.67 µM; with `CN(Cc1ccccc1)CC(O)COc1ccc(CNCc2ccc(Cl)s2)cc1` (stereo not drawn), 30.4 µM.
On to `O=C(Nc1nc(-c2ccccn2)cs1)c1ccc(Cl)s1`, for which the IC50 was 21.3 µM.
Regarding `OCCCCNCc1ccc(OCc2ccccc2Cl)cc1`, the IC50 was 86 µM.
The figure for `Nc1nc(N)c(Cc2ccc(Cl)cc2Cl)c(N)n1` is 61.8 µM; for `CCCCCCCCCCOC(=O)Cn1c(COc2ccc(Cl)cc2)[n+](C)c2ccccc21` it is 10.1 µM; for `CN1CCN(c2ccc(NC(=O)CSc3ccccc3)cc2F)CC1` it is 104 µM.
For `CCN1CCN(CCNC(=O)c2ccc3c(c2)N(Cc2ccc(F)cc2)C(=O)/C(=C/c2ccccc2)S3)CC1`, the IC50 is 45.5 µM.
Consider `Cc1ccc(NC(=O)COc2ccccc2CNC(C)(C)CC(C)(C)C)cc1`, for which the 50% inhibitory concentration (IC50) was 82.5 µM.
The figure for `Cc1ccc(-c2cc(-c3ccc(C)cc3)[n+](-c3ccccc3)c(-c3ccc(C)cc3)c2)cc1` is 23.6 µM.
Turning to `CCCCCN=C(N)N/N=C/c1c[nH]c2ccc(OC)cc12`, the IC50 was 26.9 µM.
On to `Cc1cc(C)c2sc(N(CCCN(C)C)C(=O)COc3ccc(Cl)cc3)nc2c1`, for which the IC50 is 34.8 µM.
With `O=C(Cn1cncn1)N/N=C/c1ccccc1O` the figure was 150 µM.
With `CNC[C@H](Cc1ccccc1)NC[C@@H](Cc1cccc2ccccc12)NCCc1ccc(C)cc1` the figure was 14.8 µM; with `C/C(=N/Nc1ccnc2cc(Cl)ccc12)c1ccc(N)cc1`, 73.9 µM.
Take `O=C(CCc1ccccc1)NNC(=S)NC(=O)c1ccccc1`: the 50% inhibitory concentration (IC50) is 63 µM.
With `O=C(N/N=C/c1ccc([N+](=O)[O-])s1)c1cccnc1`, the concentration for half-maximal inhibition (IC50) is 34.7 µM.
Consider `NCC/C=C1/c2ccccc2CSc2ccccc21`, for which the 50% inhibitory concentration (IC50) was 146 µM.
With `CC[C@H]1OC(=O)[C@H](C)[C@@H](O[C@H]2C[C@@](C)(OC)[C@@H](O)[C@H](C)O2)[C@H](C)[C@@H](O[C@@H]2O[C@H](C)C[C@H](N(C)C)[C@H]2O)[C@](C)(O)C[C@@H](C)[C@@H]2N[C@@H](COCCOC)O[C@H]([C@H]2C)[C@]1(C)O` the figure was 5.52 µM.
The figure for `Clc1c(OCCCn2ccnc2)ccc2ccccc12` is 76.6 µM; for `C[C@H]1COc2c(N3CCN(C)CC3)c(F)cc3c(=O)c(C(=O)O)cn1c23` it is 0.69 µM; for `O=C(Nc1cccc(C2=NCCN2)c1)Nc1cccc(C2=NCCN2)c1` it is 44.8 µM.
The figure for `OCCCNc1c2ccccc2nc2ccccc12` is 109 µM.
Regarding `NC1CCN(c2c(F)cc3c(=O)c(C(=O)O)cn(C4CC4)c3c2Cl)C1` (stereo not drawn), the IC50 was < 0.55 µM.
The figure for `O=C(/C=C/c1ccccc1)c1ccc(NC2=NCCCS2)cc1` is 67.3 µM; for `Nc1ncncc1-c1ccc([N+](=O)[O-])cc1` it is 43.9 µM; for `Brc1ccc2c(c1)C(OC1CN3CCC1CC3)c1ccccc1CS2` (stereo not drawn) it is 31.8 µM.
As for `CCCCCC(=O)NNC(=S)NC(C)=O`, the concentration for half-maximal inhibition (IC50) is 29.1 µM.
With `C=C1c2c(Cl)ccc(O)c2C(O)=C2C(=O)[C@]3(O)C(O)=C(C(N)=O)C(=O)[C@@H](N(C)C)[C@@H]3[C@@H](O)C12` (stereo partly drawn) the figure was 0.24 µM; with `O=C(NC(=S)NNC(=O)c1cnccn1)c1ccc(F)cc1`, 24.4 µM.
With `CCCCCCCCNC(C)C(O)c1ccc(SC(C)C)cc1` (stereo not drawn) the figure was 30.7 µM; with `CN1CCN(c2nc(Nc3ccc(F)cc3)nc(Nc3ccc(F)cc3)n2)CC1`, 86.7 µM.
For the compound `O=C(Nc1c2ccccc2nc2ccccc12)C(Cl)(Cl)Cl`, the IC50 is 79.8 µM.
The figure for `CN1/C(=C\C=C\C2=[N+](C)c3ccc4ccccc4c3C2(C)C)C(C)(C)c2ccccc21` is 8.85 µM.
`O=C1CN(/N=C/c2ccc([N+](=O)[O-])o2)C(=O)N1`: the half-inhibitory concentration (IC50) is 41.6 µM.
The figure for `COc1ccc(Nc2cc(C)nc(NCc3ccccc3)n2)cc1` is 38.5 µM; for `COc1cccc(F)c1C(C[N+](=O)[O-])c1c(N)n(C)c(=O)n(C)c1=O` (stereo not drawn) it is 89.2 µM.
With `COC(=O)C(C)NC(=S)N1CCN(c2c(F)cc3c(=O)c(C(=O)O)cn(C4CC4)c3c2OC)CC1C` (stereo not drawn) the figure was 39.6 µM.
With `Clc1cccc(CN2CCc3c([nH]c4ccccc34)C2)c1Cl`, the IC50 is 136 µM.
Turning to `c1ccc(Nc2ccnc(Nc3ccccc3)n2)cc1`, the half-maximal inhibitory concentration (IC50) was 38.9 µM.
As for `C#CCOCCOCCOCCNc1nc(N2CCN(C(=O)[C@H](Cc3ccc(O)cc3)n3cc([C@@H](N)C(C)CC)nn3)CC2)nc(N2CCN(C(=O)[C@H](Cc3cc4ccccc4[nH]3)n3cc([C@@H](N)Cc4ccc(O)cc4)nn3)CC2)n1` (stereo partly drawn), the half-maximal inhibitory concentration (IC50) was 32.5 µM.
With `COc1ccc(C(=O)CCN2CCc3cc(OC)c(OC)cc3C2)cc1` the figure was 120 µM; with `CN1CCN(Cc2cc(COCc3ccccc3)c3cccnc3c2O)CC1`, 36.8 µM; with `CC(NCc1ccc(Cl)c(Cl)c1)C(O)c1ccccc1` (stereo not drawn), 29.8 µM.
With `O=C(NC(=S)NNC(=O)c1cccs1)c1ccco1` the figure was 52.3 µM.
As for `C#CCOCCOCCOCCNc1nc(N2CCN(C(=O)[C@H](Cc3cc4ccccc4[nH]3)n3cc([C@@H](N)C(C)CC)nn3)CC2)nc(N2CCN(C(=O)[C@H](Cc3cc4ccccc4[nH]3)n3cc([C@@H](N)CC(C)C)nn3)CC2)n1` (stereo partly drawn), the 50% inhibitory concentration (IC50) was 24.1 µM.
As for `COc1ccc2sc(N(CCCN(C)C)C(=O)c3ccc(S(=O)(=O)N4CCc5ccccc5C4)cc3)nc2c1`, the half-maximal inhibitory concentration (IC50) is 122 µM.
With `O=C(c1cccs1)c1no[n+]([O-])c1C(=O)c1cccs1` the figure was 39.8 µM.
With `C#CCOCCOCCOCCNc1nc(N2CCN(C(=O)[C@H](Cc3cc4ccccc4[nH]3)n3cc([C@@H](N)CC(C)C)nn3)CC2)nc(N2CCN(C(=O)[C@H](Cc3cc4ccccc4[nH]3)n3cc([C@@H](N)CC(C)C)nn3)CC2)n1`, the IC50 was 19.1 µM.
The figure for `COc1ccccc1N1CCN(Cc2ccc(O)c3ncccc23)CC1` is 32.5 µM; for `S=C(Nc1cc(Cl)cc(Cl)c1)NC1CCN(Cc2ccccc2)CC1` it is 82 µM; for `Cc1ccc(Nc2c3c(nc4ccccc24)CCC3)cc1` it is 25.8 µM.
Turning to `CCCCCCOc1ccc(CN2CCN(CC)CC2)cc1`, the half-maximal inhibitory concentration (IC50) was 100 µM.
The figure for `CC(C(=O)NC1CCS(=O)(=O)C1)N1C(=O)/C(=C/c2ccc(Cl)cc2)SC1=S` (stereo not drawn) is 18.2 µM; for `CCn1cc(C(=O)NCCN(C)C)c(=O)c2cc(F)c(N3CCN(C)CC3)cc21` it is 52.8 µM; for `CNCCCC1Sc2ccccc2Oc2ccccc21` (stereo not drawn) it is 46.4 µM.
Regarding `O=C(Cn1nc(CNc2ccc(Cl)cc2)[n+]2c1CCCCC2)c1ccc(Br)cc1`, the IC50 is 57.2 µM.
With `COc1ccc(Nc2c3c(nc4ccccc24)CCC3)cc1` the figure was 113 µM; with `C#CCOCCOCCOCCNc1nc(N2CCN(C(=O)CCCCCCCCCCNC(=O)[C@H](CCCCN)n3cc(CCO)nn3)CC2)nc(N2CCN(C(=O)CCCCCCCCCCNC(=O)[C@H](CCCCN)n3cc(CCO)nn3)CC2)n1`, 36.3 µM; with `O=C(N[C@H](CO)[C@H](O)c1ccc([N+](=O)[O-])cc1)C(Cl)Cl`, 1.57 µM.
Regarding `O=C(Nc1nnc(-c2cccs2)o1)c1cccc(Oc2ccccc2)c1`, the IC50 is 59.6 µM.
Regarding `CCN(CC(O)COc1ccc(OCC(O)CN(CC)C2CCCCC2)cc1)C1CCCCC1` (stereo not drawn), the IC50 was 52.4 µM.
The figure for `O=C(O)c1ccc(N2C(=O)CSC2=S)cc1` is 137 µM; for `c1ccc2c(NCCc3c[nH]c4ccccc34)c3ccccc3nc2c1` it is 36.9 µM.
Regarding `CN(C)CCCNC(=S)NCC(c1ccc(Cl)cc1Cl)c1c[nH]c2ccccc12` (stereo not drawn), the half-maximal inhibitory concentration (IC50) was 26.4 µM.
`O=C(N/N=C/c1c[nH]c2ccccc12)c1cc2ccccc2o1`: the IC50 is 99.8 µM.
For `CN(C)CCCN1c2ccccc2Sc2ccc(Cl)cc21`, the IC50 was 34.3 µM and 31.8 µM.
As to `O=C(O)c1ccc(N2C(=O)CC(N3C(=O)/C(=C/c4ccc(Cl)cc4)SC3=S)C2=O)cc1` (stereo not drawn), the IC50 is 23.7 µM.
Turning to `COc1ccccc1NC(=O)CN1CCC(c2nc3ccc(C)cc3[nH]2)CC1`, the IC50 is 143 µM.
With `O=C(Nc1cccc(NC(=O)c2ccccc2Cl)c1)c1ccc([N+](=O)[O-])o1` the figure was 100 µM; with `Cc1ccc(-c2c[n+](Cc3ccc(Cl)cc3)c3n2CCC3)cc1`, 46 µM; with `CCN1CCN(C(=O)c2cc3cc(Cl)ccc3[nH]2)CC1`, 30.4 µM.
With `COc1cc2c3cc1Oc1cc(ccc1O)C[C@@H]1c4c(cc(OC)c(O)c4Oc4ccc(cc4)C[C@H]3N(C)CC2)CCN1C` the figure was 93.4 µM.
For the compound `C/C(=N\NC(=O)c1ccc(Cl)cc1)c1ccccn1`, the IC50 is 28.9 µM.
With `C[C@@H](NC(=O)/C(C#N)=C/c1ccc(O)c(O)c1)c1ccccc1` the figure was 84.3 µM; with `CCCN(CCC)CCNC(=O)C1CCN(Cc2nc(-c3ccc(Cl)cc3)oc2C)CC1`, 57.1 µM.
